The source of these data is patent US9867372B2, “Tetrazolinone compound and use of same” (SUMITOMO CHEMICAL COMPANY, LIMITED, priority 2013, dated 2018).

Format in all cases: in vivo
Data set [1] has as its system barley net blotch fungus (Pyrenophora teres). The data set can be described thus: barley net blotch control test, foliar spray before inoculation. The conditions noted are these: 3.1 ppm, sprayed 2 days before inoculation (Test Example 1, Comparative Example 1).
Data set [2] concerns cotton aphid (Aphis gossypii). The data set can be described thus: cotton aphid control test on cucumber, spray. The conditions noted are these: 144 h, 20 mL sprayed, counted after 6 days (Test Example 20). On the procedure:
Thirty (30) heads of cotton aphid (Aphis gossypii) (including adults and larvae) were released on the leaves of cucumber (cultivar: […]) grown in a polyethylene cup until the first true leaf was developed. Next day, 20 mL of the above test chemical solution was sprayed. […] Control value (%)={1-(Cb×Tai)/(Cai×Tb)}×100 wherein symbols in the equation represent the followings: Cb: Number of insects before spraying chemical solution in untreated area; Cai: Number of surviving insects in untreated area; Tb: Number of insects before spraying chemical solution in treated area; and Tai: Number of surviving insects in treated area.

Data set [3] deals with common cutworm (Spodoptela litura). The data set is described as follows: common cutworm larvae mortality test, treated artificial diet. To be noted: 500 ppm, 2 mL on Insecta LF, third instar larvae, after 6 days (Test Example 25).
The subject of data set [4] is (Adoxophyes orana). The data set can be described thus: Adoxophyes orana larvae mortality test, treated artificial diet. The conditions noted are these: 500 ppm, 1 mL on Silkmate 2S, first instar larvae, after 7 days (Test Example 26).
For data set [5], the system named is tomato late blight fungus (Phytophthora infestans). The conditions noted are these: 500 ppm, sprayed 2 days before inoculation (Test Example 17).

Each structure is given as a SMILES string.

Usually pest or weed control stands for how far the test organism was held down. Read a low pest or weed control as a weak effect. As a reminder, the mortality is the share of the test organisms that died. A low value points to more survivors.

As to `Cn1nnn(-c2ccccc2COc2cccc(-c3ccccc3)n2)c1=O` [1-methyl-4-[2-(6-phenylpyridin-2-yloxymethyl)-phenyl]-1,4-dihydrotetrazol-5-one, reference compound], the “area of lesion spots on the treated plant relative to that on an untreated plant” value in data set [1] is reported as not below 70%. The same measure, in the same setting: the same measure for `Cc1cccc(-n2nnn(C)c2=O)c1COc1cccc(-c2ccccc2)n1` [compound 1, 1-methyl-4-[3-methyl-2-(6-phenylpyridin-2-yloxymethyl)phenyl]-1,4-dihydrotetrazol-5-one]: not above 30%. In data set [2], `COc1ccc(-c2cccc(OCc3c(OC)cccc3-n3nnn(C)c3=O)c2)cc1` [compound 44] registered a pest or weed control at 500 ppm not below 90%. For the molecule `COc1ccccc1-c1cccc(OCc2c(C)cccc2-n2nnn(C)c2=O)c1` [compound 52], the mortality in data set [3] and in data set [4] was 100% each time.

With `COc1ccc(-c2cccc(OCc3c(C)cccc3-n3nnn(C)c3=O)c2)cn1` [compound 57], in data set [5], the “area of lesion spots on the treated plant relative to that on an untreated plant” value is not above 30%.

As to `COc1cccc(-c2cccc(OCc3c(C)cccc3-n3nnn(C)c3=O)c2F)c1` [compound 111], the pest or weed control at 500 ppm in data set [2] was not below 90%. Turning to `Cc1ccc(OCc2c(C)cccc2-n2nnn(C)c2=O)cc1-c1ccc(F)cc1` [compound 119], the pest or weed control at 500 ppm in data set [2] was not below 90%. The molecule `Cc1ccc(OCc2c(C)cccc2-n2nnn(C)c2=O)cc1-c1ccc(Cl)cc1` [compound 122] gave a pest or weed control at 500 ppm in data set [2] not below 90%. Turning to `Cc1cccc(-n2nnn(C)c2=O)c1COc1cc(-c2ccccc2)ccc1Cl` [compound 128], in data set [2], the pest or weed control at 500 ppm is not below 90%. For the molecule `Cc1cccc(-n2nnn(C)c2=O)c1COc1cc(-c2ccc(Cl)cc2)ccc1F` [compound 134], in data set [2], the pest or weed control at 500 ppm is not below 90%.

Turning to `COc1cccc(-c2ccc(Cl)c(OCc3c(C)cccc3-n3nnn(C)c3=O)c2)c1` [compound 135], the pest or weed control at 500 ppm in data set [2] is not below 90%. Still for that read-out and setting: the same measure for `COc1ccc(-c2cc(OCc3c(C)cccc3-n3nnn(C)c3=O)ccc2OC)cn1` [compound 139]: not below 90%; for `COc1ccc(-c2cc(C)cc(OCc3c(C)cccc3-n3nnn(C)c3=O)c2)cc1` [compound 142]: not below 90%.

Turning to `Cc1cc(OCc2c(C)cccc2-n2nnn(C)c2=O)cc(-c2ccccc2)c1` [compound 143], the pest or weed control at 500 ppm in data set [2] is not below 90%. `Cc1cccc(-n2nnn(C)c2=O)c1COc1cccc(-c2ccc3ocnc3c2)c1` [compound 159]: in data set [2], the pest or weed control at 500 ppm is not below 90%.

Regarding `COc1ccc(-c2cccc(OCc3c(C)cccc3-n3nnn(C)c3=O)c2)nn1` [compound 165, 1-{2-[3-(3-methoxypyridazin-6-yl)phenoxymethyl]-3-methylphenyl}-4-methyl-1,4-dihydrotetrazol-5-one], the pest or weed control at 500 ppm in data set [2] was not below 90%.
